Here are results for 10 compounds from US12441768B2, “Compositions and methods for treating endometriosis” (EndoMet Biosciences, Inc., priority 2018, dated 2025).

The target in data set [1] is Wnt-responsive promoter (TCF/LEF). Put plainly: Wnt-dependent luciferase reporter assay. Format: cell-based, murine. Summed up:
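EC50 (uM) derived from inhibition of luminescence in Wnt3a-stimulated murine 3T3 cells expressing luciferase under a TCF/LEF promoter, with peptides added across a concentration range and vehicle as control.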

The conditions of data set [2]: % Viability non-Wnt responsive cells.
In data set [3] the target is T1, β-catenin (Homo sapiens, UniProt P35222).
T1 sequence (P35222 1-781): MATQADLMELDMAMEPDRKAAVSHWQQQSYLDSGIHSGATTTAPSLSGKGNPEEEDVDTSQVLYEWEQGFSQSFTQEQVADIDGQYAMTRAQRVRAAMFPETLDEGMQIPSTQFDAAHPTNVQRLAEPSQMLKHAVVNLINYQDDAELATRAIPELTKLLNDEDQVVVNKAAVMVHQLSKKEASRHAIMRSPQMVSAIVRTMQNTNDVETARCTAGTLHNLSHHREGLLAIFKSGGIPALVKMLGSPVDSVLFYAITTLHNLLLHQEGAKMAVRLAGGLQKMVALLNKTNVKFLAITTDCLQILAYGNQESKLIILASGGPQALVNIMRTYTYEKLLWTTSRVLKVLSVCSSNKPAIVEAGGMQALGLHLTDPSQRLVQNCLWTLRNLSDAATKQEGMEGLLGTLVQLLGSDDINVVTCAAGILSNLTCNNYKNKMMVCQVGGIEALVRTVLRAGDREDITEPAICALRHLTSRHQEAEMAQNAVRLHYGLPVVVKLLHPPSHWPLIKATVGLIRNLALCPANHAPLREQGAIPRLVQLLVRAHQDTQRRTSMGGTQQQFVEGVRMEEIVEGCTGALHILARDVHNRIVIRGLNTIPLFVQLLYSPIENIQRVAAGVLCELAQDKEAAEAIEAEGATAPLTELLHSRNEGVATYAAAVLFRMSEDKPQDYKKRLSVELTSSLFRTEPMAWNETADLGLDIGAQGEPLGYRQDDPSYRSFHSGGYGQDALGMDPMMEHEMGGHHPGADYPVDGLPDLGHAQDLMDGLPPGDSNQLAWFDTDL
Put plainly: KD50 measurement using competitive fluorescence polarization (FP) with labelled TCF4. Format: binding. As to conditions: fluorescence polarization, β-catenin. In outline:
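Polarization readout (470 nm excitation, 520 nm emission) tracks loss of labelled TCF4 binding to β-catenin as test compound competes. Conditions were 5 nM tracer, 100 nM β-catenin, room temperature, compound serially diluted from 10 nM to 30 uM; run in triplicate experiments.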

For orientation: EC50 means the concentration needed to bring the measured effect to its halfway point. Read a high EC50 as a less potent agent. The term viability denotes a read-out of living cells in per cent, often relative to untreated cells. By Kd is commonly meant a measure of binding affinity in units of concentration.

Structures are written as SMILES. Read-outs that look alike come from different tables or passages of the source. Where a SMILES comes first, the peptide text is derived from it. Bounds are passed on as bounds.

The compound `CC[C@H](C)[C@@H]1NC(=O)[C@H](CC(C)C)NC(=O)[C@H](Cc2ccc(O)cc2)NC(=O)[C@H](Cc2c[nH]c3ccccc23)NC(=O)[C@H](CCSC)NC(=O)[C@H](CCCNC(=N)N)NC(=O)[C@H](CO)NC(=O)[C@H](CCSC)NC(=O)[C@@H](N)CCCCNC(=O)[C@H](Cc2c[nH]c3ccccc23)NC(=O)[C@H](Cc2ccccc2)NC(=O)[C@H](CO)NC1=O` [compound 31] (HELM PEPTIDE1{K.M.S.R.M.W.Y.L.I.S.F.W}$PEPTIDE1,PEPTIDE1,1:R3-12:R2$$$V2.0; bridges inferred) yielded an EC50 in data set [1] of more than 30 µM. Further, the viability in data set [2] turned out to be 89%.

Take `CC[C@H](C)[C@H](NC(=O)[C@H](CC(C)C)NC(=O)[C@H](Cc1ccccc1)NC(=O)[C@H](Cc1c[nH]c2ccccc12)NC(=O)[C@@H](N)CCSC)C(=O)N[C@@H](CS)C(=O)N[C@@H](Cc1ccccc1)C(=O)N[C@@H](Cc1c[nH]c2ccccc12)C(=O)N(C)CC(=O)O` [compound 213] (HELM PEPTIDE1{M.W.F.L.I.C.F.W.[Sar]}$$$$V2.0): in data set [3] (read-out: β-Cat FP KD), the Kd was 1 to 10 µM. The viability in data set [2] turned out to be 112%.

As for `CC[C@H](C)[C@H](NC(=O)[C@H](CC(C)C)NC(=O)[C@@H](NC(=O)[C@H](Cc1c[nH]c2ccccc12)NC(=O)[C@H](CCSC)NC(C)=O)[C@@H](C)CC)C(=O)N[C@@H](CO)C(=O)N[C@@H](Cc1ccccc1)C(=O)N[C@@H](Cc1c[nH]c2ccccc12)C(=O)N(C)CC(=O)O` [compound 221] (HELM PEPTIDE1{[ac].M.W.I.L.I.S.F.W.[Sar]}$$$$V2.0), in data set [3] (read-out: β-Cat FP KD), the Kd is less than 0.4 µM. Also, the viability in data set [2] is 101%.

For the compound `CC[C@H](C)[C@@H]1NC(=O)[C@@H](NC(=O)[C@H](CCC(N)=O)NC(=O)C(C)(C)NC(=O)[C@H](Cc2c[nH]c3ccccc23)NC(C)=O)CCCCNC(=O)CC[C@@H](C(=O)N[C@@H](Cc2c[nH]cn2)C(=O)N[C@H](C(=O)N[C@@H](CCC(N)=O)C(=O)N[C@@H](CCCNC(=N)N)C(=O)N[C@H](C(=O)N[C@@H](Cc2c[nH]c3ccccc23)C(=O)NCC(N)=O)C(C)C)C2CCCCC2)NC(=O)[C@H](CC(=O)O)NC(=O)[C@H](CC(C)C)NC1=O` [compound 443] (HELM PEPTIDE1{[ac].W.[Aib].Q.K.I.L.D.E.H.[O=C([C@@H](N[*:1])C1CCCCC1)[*:2]].Q.R.V.W.G.[am]}$PEPTIDE1,PEPTIDE1,5:R3-9:R3$$$V2.0), in data set [3], the “β-Cat FP Hill slope” value is 0.86. Further, the Kd in data set [3] (read-out: β-Cat FP KD) is less than 0.4 µM. The same compound came in with an EC50 in data set [1] of 7.5 to 15 µM.

Consider `CC[C@H](C)[C@@H]1NC(=O)[C@@H](NC(=O)[C@H](CCC(N)=O)NC(=O)[C@H](C)N(C)C(C)=O)CCCCNC(=O)CC[C@@H](C(=O)N[C@@H](Cc2c[nH]cn2)C(=O)N[C@H](C(=O)N[C@@H](CCC(N)=O)C(=O)N[C@@H](CCCNC(=N)N)C(=O)N[C@H](C(=O)N[C@@H](Cc2c[nH]c3ccccc23)C(N)=O)C(C)C)C2CCCCC2)NC(=O)[C@H](CC(=O)O)NC(=O)[C@H](CC(C)C)NC1=O` [compound 445] (HELM PEPTIDE1{[ac].[meA].Q.K.I.L.D.E.H.[O=C([C@@H](N[*:1])C1CCCCC1)[*:2]].Q.R.V.W.[am]}$PEPTIDE1,PEPTIDE1,4:R3-8:R3$$$V2.0), for which the “β-Cat FP Hill slope” value in data set [3] stood at 0.7. In addition, in data set [3] (read-out: β-Cat FP KD), the Kd is less than 0.4 µM. In data set [1], this compound had an EC50 of 22.5 to 30 µM.

On to `CC[C@H](C)[C@@H]1NC(=O)[C@@H](NC(=O)[C@H](CCC(N)=O)NC(=O)[C@H](C)N(C)C(C)=O)CCCCNC(=O)CC[C@@H](C(=O)N[C@@H](Cc2c[nH]cn2)C(=O)N[C@H](C(=O)N[C@@H](CCC(N)=O)C(=O)N[C@@H](CCCNC(=N)N)C(=O)N[C@H](C(=O)N[C@@H](Cc2c[nH]c3ccccc23)C(=O)N[C@@H](CCCNC(=N)N)C(N)=O)C(C)C)C2CCCCC2)NC(=O)[C@H](CC(=O)O)NC(=O)[C@H](CC(C)C)NC1=O` [compound 448] (HELM PEPTIDE1{[ac].[meA].Q.K.I.L.D.E.H.[O=C([C@@H](N[*:1])C1CCCCC1)[*:2]].Q.R.V.W.R.[am]}$PEPTIDE1,PEPTIDE1,4:R3-8:R3$$$V2.0), for which, in data set [3], the “β-Cat FP Hill slope” value is listed as 0.7. Moreover, the Kd in data set [3] (read-out: β-Cat FP KD) was less than 0.4 µM. Also, in data set [1], the EC50 was more than 30 µM.

In the case of `CC[C@H](C)[C@@H]1NC(=O)[C@@H](NC(=O)[C@H](CCC(N)=O)NC(=O)[C@H](C)N(C)C(=O)[C@H](Cc2c[nH]c3ccccc23)NC(C)=O)CCCCNC(=O)CC[C@@H](C(=O)N[C@@H](Cc2c[nH]cn2)C(=O)N[C@H](C(=O)N[C@@H](CCC(N)=O)C(=O)N[C@@H](CCCNC(=N)N)C(=O)N[C@H](C(=O)N[C@@H](Cc2c[nH]c3ccccc23)C(=O)N[C@@H](CCCNC(=N)N)C(N)=O)C(C)C)C2CCCCC2)NC(=O)[C@H](CC(=O)O)NC(=O)[C@H](CC(C)C)NC1=O` [compound 449] (HELM PEPTIDE1{[ac].W.[meA].Q.K.I.L.D.E.H.[O=C([C@@H](N[*:1])C1CCCCC1)[*:2]].Q.R.V.W.R.[am]}$PEPTIDE1,PEPTIDE1,5:R3-9:R3$$$V2.0), the “β-Cat FP Hill slope” value in data set [3] came out at 0.89. Besides, the Kd in data set [3] (read-out: β-Cat FP KD) was less than 0.4 µM. Moreover, the EC50 in data set [1] was more than 30 µM.

As to `CC[C@H](C)[C@@H]1NC(=O)[C@@H](NC(=O)[C@H](CCC(N)=O)NC(=O)[C@H](C)N(C)C(=O)[C@H](Cc2c[nH]c3ccccc23)NC(C)=O)CCCCNC(=O)C[C@@H](C(=O)N[C@@H](Cc2c[nH]cn2)C(=O)N[C@H](C(=O)N[C@@H](CCC(N)=O)C(=O)N[C@@H](C)C(=O)N[C@H](C(N)=O)C(C)C)C2CCCCC2)NC(=O)[C@H](CC(N)=O)NC(=O)[C@H](CC(C)C)NC1=O` [compound 452] (HELM PEPTIDE1{[ac].W.[meA].Q.K.I.L.N.D.H.[O=C([C@@H](N[*:1])C1CCCCC1)[*:2]].Q.A.V.[am]}$PEPTIDE1,PEPTIDE1,5:R3-9:R3$$$V2.0), in data set [3], the “β-Cat FP Hill slope” value worked out at 0.7. The Kd in data set [3] (β-Cat FP KD) was 0.4 to 1 µM. In addition, in data set [1], the EC50 fell in the range of 15 to 22.5 µM.

Consider `CCCCCCCCCCCC(=O)N[C@@H](Cc1c[nH]c2ccccc12)C(=O)N(C)[C@@H](C)C(=O)N[C@@H](CCC(N)=O)C(=O)N[C@H]1CCCCNC(=O)CC[C@@H](C(=O)N[C@@H](Cc2c[nH]cn2)C(=O)N[C@H](C(=O)N[C@H]2CCC(=O)NCCCC[C@@H](C(N)=O)NC(=O)[C@H](Cc3c[nH]c4ccccc34)NC(=O)[C@H](C(C)C)NC(=O)[C@H](CC(=O)O)NC2=O)C2CCCCC2)NC(=O)[C@H](CC(=O)O)NC(=O)[C@H](CC(C)C)NC(=O)[C@H]([C@@H](C)CC)NC1=O` [compound 465] (HELM PEPTIDE1{[CCCCCCCCCCCC(=O)[*:2]].W.[meA].Q.K.I.L.D.E.H.[O=C([C@@H](N[*:1])C1CCCCC1)[*:2]].E.D.V.W.K.[am]}$PEPTIDE1,PEPTIDE1,5:R3-9:R3|PEPTIDE1,PEPTIDE1,12:R3-16:R3$$$V2.0; bridges inferred), for which the “β-Cat FP Hill slope” value in data set [3] amounted to 0.7. The EC50 in data set [1] was less than 7.5 µM.

For the compound `CC[C@H](C)[C@H](NC(=O)[C@H](CO)NC(=O)[C@H](CCC(N)=O)NC(=O)[C@@H]1CCCN1C(=O)[C@H](Cc1c[nH]c2ccccc12)NC(C)=O)C(=O)N[C@@H](CC(C)C)C(=O)N[C@@H](CC(=O)O)C(=O)N[C@H]1CCC(=O)NCCCC[C@@H](C(=O)N[C@H](C(=O)N[C@@H](Cc2c[nH]c3ccccc23)C(=O)NCC(N)=O)C(C)C)NC(=O)[C@H](CCC(N)=O)NC(=O)[C@H](C2CCCCC2)NC(=O)[C@H](Cc2c[nH]cn2)NC1=O` [compound 472] (HELM PEPTIDE1{[ac].W.P.Q.S.I.L.D.E.H.[O=C([C@@H](N[*:1])C1CCCCC1)[*:2]].Q.K.V.W.G.[am]}$PEPTIDE1,PEPTIDE1,9:R3-13:R3$$$V2.0), the “β-Cat FP Hill slope” value in data set [3] came out at 0.89. In addition, the dissociation constant (Kd) in data set [3] (read-out: β-Cat FP KD) was less than 0.4 µM. For the same compound, in data set [1], the EC50 fell in the range of 7.5 to 15 µM.
